Assay results taken from patent US4562199A, “Imidazole derivatives, compositions and use” (priority 1983, dated 1985).
Counter-ions that a name gives are not always drawn.

molecular target: T1, Thromboxane A2 Synthetase (Equus caballus, UniProt A0A9L0T8T9); test: Determination of Thromboxane A2 Synthetase Inhibitory Activity; format: biochemical; settings: lysed platelets from horse PRP; [1-14C]-arachidonic acid; 3 min at 37° C.; Tris buffer pH 7.5; read-out: ED50 (concentration of active compound required to reduce the enzyme activity by 50%) (converted)
T1 construct: [1-14C]arachidonic acid substrate, TXB2 by TLC
T1 sequence (A0A9L0T8T9 2-534): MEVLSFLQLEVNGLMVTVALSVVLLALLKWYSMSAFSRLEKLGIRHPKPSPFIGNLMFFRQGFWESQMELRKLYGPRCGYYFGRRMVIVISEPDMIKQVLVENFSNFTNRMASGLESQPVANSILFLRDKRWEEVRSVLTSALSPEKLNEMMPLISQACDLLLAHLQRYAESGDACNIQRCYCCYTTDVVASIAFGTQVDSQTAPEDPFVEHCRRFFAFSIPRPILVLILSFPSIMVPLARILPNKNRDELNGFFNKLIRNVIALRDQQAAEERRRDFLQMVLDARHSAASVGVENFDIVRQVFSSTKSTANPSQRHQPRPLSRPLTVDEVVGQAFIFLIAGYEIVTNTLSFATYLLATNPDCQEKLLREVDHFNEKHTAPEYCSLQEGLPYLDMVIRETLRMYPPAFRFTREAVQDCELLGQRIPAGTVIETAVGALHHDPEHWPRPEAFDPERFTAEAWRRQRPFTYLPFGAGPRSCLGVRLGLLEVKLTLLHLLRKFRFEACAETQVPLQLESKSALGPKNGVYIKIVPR
Description: The active compound was dissolved in a suitable solvent at a concentration of 5 mg/ml, and 20 μl added to 0.8 ml of 100 mM Tris buffer (pH 7.5).
The platelets from 5 ml of horse PRP were centrifuged and resuspended in 100 μl of Tris buffer. After lysis by sonication or freeze thawing, the platelet suspension was added to the solution of active compound and equilibrated for 5 min at room temperature. Then 300 ng (50 nCi) of [1-^14 -C]-arachidonic acid, dissolved in 100 μl Tris buffer, was added and the mixture incubated for 3 min at 37° C.
The reaction was stopped with 50 μl 2N HCl and the product extracted with 1.5 volumes ethyl acetate by whirling for 30 seconds. 1 ml saturated NaCl was added to the aqueous phase to prevent emulsion formation. The organic layer was removed, dried under N2 and the products redissolved in 50 μl chloroform/methanol mixture for quantitative spotting onto a TLC plate, and subsequent analysis.
The plate was developed in chloroform, methanol, acetic acid, water (90:8:1:0.8), dried and then visualised by autoradiography for 2-3 days.
The concentration of active compound required to reduce the enzyme activity by 50% (ED50) was established.

Compared with `O=C(O)c1ccc(C=CCn2ccnc2)cc1Cl` [Example 10, 1-[3-(4-Carboxy-3-chlorophenyl)prop-2-enyl]imidazole hydrochloride hemihydrate], `O=C(O)/C=C/c1ccc(Cn2ccnc2)c(Cl)c1` [Example 3, (E)-3-[3-Chloro-4-(imidazol-1-ylmethyl)phenyl]prop-2-enoic acid hydrochloride] is 8-fold lower in IC50: 1330 nM for the first, 167 nM for the second.

Compared with `CCOC(=O)/C=C/c1ccc(Cn2ccnc2)c(Cl)c1` [Example 2, Ethyl (E)-3-[3-chloro-4-(imidazol-1-ylmethyl)phenyl]prop-2-enoate], `O=C(O)C=Cc1ccc(Cn2ccnc2)c(Br)c1` [Example 6, 3-[3-Bromo-4-(imidazol-1-ylmethyl)phenyl]prop-2-enoic acid hydrochloride hydrate] is 41-fold lower in IC50: 1720 nM for the first, 41.5 nM for the second.

Going from `O=C(O)CCc1ccc(Cn2ccnc2)c(Cl)c1` [Example 4, 3-[3-Chloro-4-(imidazol-1-ylmethyl)phenyl]propanoic acid hydrochloride] to `O=C(O)c1ccc(Cn2ccnc2)c(Cl)c1` [Example 1, 1-(4-Carboxy-2-chlorobenzyl)imidazole hydrochloride], the IC50 rises from 266 nM to 24200 nM (91-fold).
